Counter-ions that a name gives are not always drawn.
Target: T1, human recombinant 6His-Nterm SHP2 full-length (Thr2-Arg593) (Homo sapiens, UniProt Q06124)
T1 construct: 6His-Nterm SHP2 full-length (Thr2-Arg593, R&D system); 6His (N); purchased R&D system
T1 sequence (Q06124 2-593): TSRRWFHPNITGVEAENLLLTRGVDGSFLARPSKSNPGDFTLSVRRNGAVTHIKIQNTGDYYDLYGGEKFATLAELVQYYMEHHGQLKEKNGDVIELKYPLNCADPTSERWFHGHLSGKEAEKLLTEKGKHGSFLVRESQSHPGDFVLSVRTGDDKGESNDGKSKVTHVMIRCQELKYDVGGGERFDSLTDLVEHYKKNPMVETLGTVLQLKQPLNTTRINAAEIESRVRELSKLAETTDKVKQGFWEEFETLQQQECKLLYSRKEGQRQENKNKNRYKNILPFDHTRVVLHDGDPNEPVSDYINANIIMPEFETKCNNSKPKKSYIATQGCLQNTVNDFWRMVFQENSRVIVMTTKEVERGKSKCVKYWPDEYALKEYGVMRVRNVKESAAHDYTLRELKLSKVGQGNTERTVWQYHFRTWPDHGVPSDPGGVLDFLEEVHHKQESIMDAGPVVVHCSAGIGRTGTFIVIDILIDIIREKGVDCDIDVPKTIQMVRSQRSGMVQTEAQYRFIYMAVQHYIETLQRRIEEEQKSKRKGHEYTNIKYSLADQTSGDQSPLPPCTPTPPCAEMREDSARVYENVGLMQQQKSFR
Experiment: SHP2 Phosphatase Assay (DiFMUP fluorescence)
Type: biochemical
Conditions: SHP2 0.2 nM pre-incubated with 100 nM bi-phosphorylated activating peptide; compound 1000-0.05 nM, 30 min pre-incubation; DiFMUP 20 µM, 45 min, room temperature; 10-concentration dose-response
In short: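 SHP2 (0.2 nM) preactivated ≥10 min with 100 nM bis-phosphorylated peptide, then 30 min with compound (10 concentrations, 1000–0.05 nM) at room temperature, pH 7.2 HEPES buffer with DTT. DiFMUP (20 µM, added solution) reacted 45 min, pervanadate-stopped; fluorescence 350/450 nm. IC50 by 4-parameter logistic fit.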

Row | IC50 [nM] | SMILES
1 | 13 | COc1ccc(F)c(-c2c(C)nc(N3CCC4(CC3)Cc3ncccc3[C@H]4N)c3ccnn23)c1 [Compound 31, (5S)-1'-[7-(2-fluoro-5-methoxy-phenyl)-6-methyl-pyrazolo[1,5-a]pyrazin-4-yl]spiro[5,7-dihydrocyclopenta[b]pyridine-6,4'-piperidine]-5-amine]
2 | 3 | CCc1nccc(-c2c(C)nc(N3CCC4(CC3)Cc3ncccc3[C@H]4N)c3ccnn23)c1Cl [Compound 42, (5S)-1'-[7-(3chloro-2-ethyl-4-pyridyl)-6-methyl-pyrazolo[1,5-a]pyrazin-4-yl]spiro[5,7-dihydrocyclopenta[b]pyridine-6,4'-piperidine]-5-amine]
3 | 6 | Cc1nc(N2CCC3(CC2)Cc2ncccc2[C@H]3N)c2ccnn2c1-c1cccc(F)c1 [Compound 203, (5S)-1'-[7-(3-fluorophenyl)-6-methyl-pyrazolo[1,5-a]pyrazin-4-yl]spiro[5,7-dihydrocyclopenta[b]pyridine-6,4'-piperidine]-5-amine]
4 | 7 | COc1ccc(-c2c(C)nc(N3CCC4(CC3)Cc3ncccc3[C@H]4N)c3ccnn23)c(F)c1 [Compound 185, (5S)-1'-[7-(2-fluoro-4-methoxy-phenyl)-6-methyl-pyrazolo[1,5-a]pyrazin-4-yl]spiro[5,7-dihydrocyclopenta[b]pyridine-6,4'-piperidine]-5-amine]
5 | 7 | Cc1nc(N2CCC3(CC2)Cc2ncccc2[C@H]3N)c2ccnn2c1-c1cccc(F)c1C [Compound 197, (5S)-1'-[7-(3-fluoro-2-methyl-phenyl)-6-methyl-pyrazolo[1,5-a]pyrazin-4-yl]spiro[5,7-dihydrocyclopenta[b]pyridine-6,4'-piperidine]-5-amine]
6 | 7 | Cc1cccc(-c2c(C)nc(N3CCC4(CC3)Cc3ncccc3[C@H]4N)c3ccnn23)c1C [Compound 164, (5S)-1'-[7-(2,3-dimethylphenyl)-6-methyl-pyrazolo[1,5-a]pyrazin-4-yl]spiro[5,7-dihydrocyclopenta[b]pyridine-6,4'-piperidine]-5-amine]
7 | 4 | COc1ccc(-c2c(C)nc(N3CCC4(CC3)Cc3ncccc3[C@H]4N)c3ccnn23)c(F)c1F [Compound 175, (5 S)-1'-[7-(2,3-difluoro-4-methoxy-phenyl)-6-methyl-pyrazolo[1,5-a]pyrazin-4-yl]spiro[5,7-dihydrocyclopenta[b]pyridine-6,4'-piperidine]-5-amine]
8 | 8 | Cc1nc(N2CCC3(CC2)Cc2c(ccnc2CO)[C@H]3N)c2ccnn2c1-c1ccccc1F [Compound 35, [(5S)-5-amino-1'-[7-(2-fluorophenyl)-6-methyl-pyrazolo[1,5-a]pyrazin-4-yl]spiro[5,7-dihydrocyclopenta[c]pyridine-6,4'-piperidine]-1-yl]methanol]
9 | 8 | Cc1nccc(-c2c(C)nc(N3CCC4(CC3)Cc3c(F)cccc3[C@H]4N)c3ccnn23)c1Cl [Compound 92, (1S)-1'-[7-(3-chloro-2-methyl-4-pyridyl)-6-methyl-pyrazolo[1,5-a]pyrazin-4-yl]-4-fluoro-spiro[indane-2,4'-piperidine]-1-amine formate]

The next lines start with the molecule.

Row | SMILES | IC50 [nM]
10 | CCn1ncc(-c2c(C)nc(N3CCC4(CC3)Cc3ccc(OC)cc3[C@H]4N)c3ccnn23)c1C [Compound 125, (1S)-1'-[7-(1-ethyl-5-methyl-pyrazol-4-yl)-6-methyl-pyrazolo[1,5-a]pyrazin-4-yl]-6-methoxy-spiro [indane-2,4'-piperidine]-1-amine hydrochloride] | 9
11 | Cc1nc(N2CCC3(CC2)Cc2ncccc2[C@H]3N)c2ccnn2c1-c1ccnnc1 [Compound 159, (5S)-1'-(6-methyl-7-pyridazin-4-yl-pyrazolo[1,5-a]pyrazin-4-yl)spiro[5,7-dihydrocyclopenta[b]pyridine-6,4'-piperidine]-5-amine hydrochloride] | 649
12 | Cc1nc(N2CCC3(CC2)Cc2ncc(C(F)F)cc2[C@H]3N)c2ccnn2c1-c1cnn(C)c1C [Compound 55, (5S)-3-(difluoromethyl)-1'-[7-(1,5-dimethylpyrazol-4-yl)-6-methyl-pyrazolo[1,5-a]pyrazin-4-yl]spiro [5,7-dihydrocyclopenta[b]pyridine-6,4'-piperidine]-5-amine] | 30
13 | Cc1nc(N2CCC3(CC2)Cc2ncccc2[C@H]3N)c2ccnn2c1-c1cc2ccccc2n1C [Compound 50, (5S)-1'-[6-methyl-7-(1-methylindol-2-yl)pyrazolo[1,5-a]pyrazin-4-yl]spiro[5,7-dihydrocyclopenta[b]pyridine-6,4'-piperidine]-5-amine] | 10
14 | Cc1nc(N2CCC3(CC2)Cc2ncccc2[C@H]3N)c2c(F)cnn2c1-c1ccccc1F [Compound 142, (5S)-1'-[3-fluoro-7-(2-fluorophenyl)-6-methyl-pyrazolo [1,5-a]pyrazin-4-yl]spiro[5,7-dihydrocyclopenta[b]pyridine-6,4'-piperidine]-5-amine hydrochloride] | 26
15 | COc1ccc2c(c1)[C@@H](N)C1(CCN(c3nc(C)c(-c4cc(C(F)(F)F)nn4C)n4nccc34)CC1)C2 [Compound 127, (1S)-6-methoxy-1'-[6-methyl-7-[2-methyl-5-(trifluoromethyl)pyrazol-3-yl]pyrazolo[1,5-a]pyrazin-4-yl]spiro[indane-2,4'-pipendine]-1-amine hydrochloride] | 22
16 | CNc1cc(-c2c(C)nc(N3CCC4(CC3)Cc3ncccc3[C@H]4N)c3ccnn23)ccn1 [Compound 168, (5S)-1'-[6-methyl-7-[2-(methylamino)-4-pyridyl]pyrazolo[1,5-a]pyrazin-4-yl]spiro[5,7-dihydrocyclopenta[b]pyridine-6,4'-piperidine]-5-amine] | 30
17 | N[C@@H]1c2cccnc2CC12CCN(c1ncc(-c3cccc(F)c3F)n3nccc13)CC2 [Compound 26, (5S)-1'-[7-(2,3-difluorophenyl)pyrazolo[1,5-a]pyrazin-4-yl]spiro[5,7-dihydrocyclopenta[b]pyridine-6,4'-piperidine] -5-amine formate] | 23
18 | Cc1nc(N2CCC3(CC2)Cc2ncccc2[C@H]3N)c2c(F)cnn2c1-c1ccccc1 [Compound 143, (5S)-1'-(3-fluoro-6-methyl-7-phenyl-pyrazolo[1,5-a]pyrazin-4-yl)spiro[5,7-dihydrocyclopenta[b]pyridine-6,4'-piperidine]-5-amine hydrochloride] | 39
19 | Cc1nc(N2CCC3(CC2)Cc2ncccc2[C@H]3N)c2ccnn2c1-c1cncc(F)c1 [Compound 179, (5S)-1'-[7-(5-fluoro-3-pyridyl)-6-methyl-pyrazolo[1,5-a]pyrazin-4-yl]spiro[5,7-dihydrocyclopenta[b]pyridine-6,4'-piperidine]-5-amine] | 18
20 | Cc1nc(N2CCC3(CC2)Cc2ncccc2[C@H]3N)c2ccnn2c1-c1ccnc(N2CCOCC2)c1F [Compound 198, (5S)-1'-[7-(3-fluoro-2-morpholino-4-pyridyl)-6-methyl-pyrazolo[1,5-a]pyrazin-4-yl]spiro[5,7-dihydrocyclopenta[b]pyridine-6,4'-piperidine]-5-amine] | 437
21 | Cc1nc(N2CCC3(CC2)Cc2ncccc2[C@H]3N)c2cc(C(F)F)nn2c1-c1cnn(C)c1C [Compound 36, (5S)-1'-[2-(difluoromethyl)-7-(1,5-dimethylpyrazol-4-yl)-6-methyl-pyrazolo[1,5-a]pyrazin-4-yl]spiro[5,7-dihydrocyclopenta[b]pyridine-6,4'-piperidine]-5-amine] | 228
22 | Cc1nc(N2CCC3(CC2)Cc2ccc(F)cc2[C@H]3N)c2ccnn2c1-c1cnn(C)c1C [Compound 103, (1S)-1'-[7-(1,5-dimethylpyrazol-4-yl)-6-methyl-pyrazolo[1,5-a]pyrazin-4-yl]-6-fluoro-spiro [indane-2,4'-piperidine]-1-amine hydrochloride] | 12
23 | Cc1nccc(-c2c(C)nc(N3CCC4(CC3)Cc3cc(F)ccc3[C@H]4N)c3ccnn23)c1Cl [Compound 217, (1S)-1'-[7-(3-Chloro-2-methyl-4-pyridyl)-6-methyl-pyrazolo[1,5-a]pyrazin-4-yl]-5-fluoro-spiro[indane-2,4'-piperidine]-1-amine formate] | 8
24 | Cc1c(-c2cnc(N3CCC4(CC3)Cc3ncccc3[C@H]4N)c3ccnn23)cnn1C [Compound 88, (5S)-1'-[7-(1,5-dimethylpyrazol-4-yl)pyrazolo [1,5-a]pyrazin-4-yl]spiro[5,7-dihydrocyclopenta[b]pyridine-6,4'-piperidine] -5-amine hydrochloride] | 346
25 | N[C@@H]1c2cccnc2CC12CCN(c1ncc(-c3cccc(F)c3Cl)n3nccc13)CC2 [Compound 87, (5 S)-1'-[7-(2-chloro-3-fluorophenyl)pyrazolo[1,5-a]pyrazin-4-yl]spiro [5,7-dihydrocyclopenta[b]pyridine-6,4'-piperidine] -5-amine hydrochloride] | 22

Source: patent publication EP4227307A1 (Genzyme Corporation, priority 2022, dated 2023)
